What all share (assay): NCI-60 cell line screen, 48 h
For assay [1], the system named is SN12C renal.
Assay [2] concerns HCT-15 colon.
Assay [3] has as its system HT29 colon.
For assay [4], the system named is HCT-116 colon.
In assay [5] the test system is SK-MEL-5 melanoma.
Assay [6] has as its system OVCAR-3 ovarian.
The subject of assay [7] is PC-3 prostate.
Assay [8] concerns SNB-19 CNS.
For assay [9], the system named is NCI-H522 lung.
Assay [10] relates to M14 melanoma.

Where “and” joins values, the source holds several entries; their conditions need not be identical. Identical values can stand only once.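 Interpolation was linear, between the two tested concentrations surrounding the appropriate level; five concentrations were tested over 48 hours in 96-well plates. Here, GI50 denotes the concentration required for 50% inhibition of growth. Definition used: TGI = concentration required for complete inhibition of growth.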 Where a SMILES comes first, the peptide text is derived from it. Bridges are numbered along the chain shown (N, C = ends). [ ]: non-standard residue; d: D form. The star is where a group is joined. ξ: configuration not given here. X26 = O=C(/C=C/C=C/C=C/C=C/C=C/C(=O)*)NC1=C(O)CCC1=O; NMeA = CN[C@@H](C)C(=O)O; ξF = NC(Cc1ccccc1)C(=O)O; ξA = CC(N)C(=O)O

As for `COc1ccc(/C=C2\C[C@H]3[C@@H]4CCC5=C/C(=N/O)CC[C@]5(C)[C@H]4CC[C@]3(C)\C2=N\O)cc1OC`, the TGI is > 100 µM in [1]; > 100 µM in assay [2]; > 100 µM in assay [3]; > 100 µM in assay [4]; 14.9 µM in assay [5]; > 100 µM in [6]. Moreover, the TGI in [7], in assay [8], in assay [9] and in assay [10] was > 100 µM in each case.
In the case of `COc1ccc(S(=O)(=O)N2C(=O)CCC2C(=O)NN)cc1` (stereo not drawn), the TGI in assay [1], in assay [2], in assay [3], in assay [4], in [5] and in [6] was > 100 µM each time. For the same molecule, the TGI in assay [7], in assay [8], in [9] and in [10] was > 100 µM throughout.
Turning to `NNC1=N/C(=C\c2ccco2)C(Cl)=N1`, the TGI in assay [1], in assay [2], in assay [3], in assay [4], in [5] and in assay [6] was > 100 µM each time. Also, the TGI in [7] is > 100 µM; in assay [8], > 100 µM; in [9], 92.2 µM; in assay [10], > 100 µM.
Regarding `O=C(O)C(SC1=NNC2(C(=O)N1)c1ccccc1-c1ccccc12)SC1=NNC2(C(=O)N1)c1ccccc1-c1ccccc12`, the TGI in assay [1], in assay [2], in assay [3], in [4], in assay [5] and in assay [6] was > 10 µM throughout. For the same molecule, the TGI in assay [7], in [8], in [9] and in assay [10] was > 10 µM in each case.
Consider `CSc1c(C#N)c(N)n(-c2ccc(C)cc2)c(=O)c1C#N`, for which the TGI in [1], in assay [2], in [3], in assay [4], in [5] and in [6] was > 100 µM throughout. Besides, the TGI in [7], in assay [8], in assay [9] and in assay [10] was > 100 µM each time.
Regarding `COc1cc2nc(-c3cccs3)oc(=O)c2cc1OC`, the TGI in assay [1], in assay [2], in assay [3], in assay [4], in assay [5] and in assay [6] was > 100 µM in each case. Further, the TGI in assay [7], in assay [8], in assay [9] and in [10] was > 100 µM in each case.
As to `Cc1cc(-c2nc3ccccc3s2)ccc1NC(=O)[C@@H](N)CCCCN`, the TGI in assay [1] was 32.9 µM; in [2], 24.3 µM; in assay [3], 16.9 µM; in assay [4], 19.9 µM; in assay [5], 28 µM; in assay [6], 26.3 µM. The TGI in assay [7] was determined as 30.1 µM; in assay [8] it was 29.4 µM; in assay [9], 19.2 µM; in assay [10] it was 7.88 µM.
Take `Nc1nc(Cl)cc(NCC2(CO)CCC(CCc3ccccc3)C2)n1` (stereo not drawn): the TGI in assay [1] is 31.1 µM; in [2], 34 µM; in [3] it was 21.4 µM; in assay [4], 21.9 µM; in assay [5], 15.6 µM; in assay [6], 28.9 µM. The TGI in [7] was found to be 43.4 µM; in [8], 31.3 µM; in [9] it was 25.6 µM; in assay [10] it was 27.8 µM.
On to `CC(C)=CCC/C(C)=C/COC(C)(C)C1=CCC(C)CC1` (stereo not drawn) (tested in a mixture with another compound), for which the TGI in assay [1], in [2], in [3], in [4], in assay [5] and in [6] was > 100 µM in each case. Also, the TGI in assay [7], in assay [8], in assay [9] and in assay [10] was > 100 µM throughout.
Regarding `CC(O)CCCOC(c1ccccc1)(c1ccccc1)c1ccccc1` (stereo not drawn), the TGI in [1] was found to be 30.6 µM; in [2], 29.8 µM; in [3], 26.2 µM; in assay [4], 26.9 µM; in assay [5] it was 16.6 µM; in assay [6], 27.3 µM. Besides, the TGI in [7] is 23.7 µM; in assay [8] it was 29.6 µM; in assay [9], 26.8 µM; in [10] it was 29.1 µM.
For the molecule `CNc1ncnc2c1cnn2COCC(O)CO` (stereo not drawn), the TGI in assay [1], in assay [2], in assay [3], in assay [4], in [5] and in assay [6] was > 100 µM throughout. Moreover, the TGI in [7], in [8], in assay [9] and in assay [10] was > 100 µM each time.
Take `C=CCNC(=S)N=Nc1c(O)[nH]c2ccc([N+](=O)[O-])cc12`: the TGI in assay [1], in assay [2], in assay [3], in assay [4], in [5] and in assay [6] was > 100 µM throughout. The TGI in assay [7], in [8], in [9] and in [10] was > 100 µM in each case.
As for `COC(C)(C)[C@@H](O)[C@H]1C[C@H](C)[C@@]2(CC[C@]3(C)[C@@H]2CC[C@@H]2[C@@]4(C)CC[C@@H](OC(C)=O)C(C)(C)[C@@H]4C[C@@H](OC4OC(COC(C)=O)C(O)C(O)C4O)[C@]23C)O1` (stereo partly drawn), the TGI stood at 19.4 µM in assay [1]; 5.75 µM in [2]; 4.07 µM in [3]; 11.5 µM in assay [4]; 15.1 µM in assay [5]; 15.3 µM in [6]. Moreover, the TGI was 8.1 µM in [7], 21.3 µM in [8], 17.4 µM in assay [9] and 16.5 µM in [10].
Take `O=C(Oc1cc(=O)c(OC(=O)c2ccccc2)co1)c1ccccc1`: the TGI in [1], in assay [2], in assay [3], in [4], in [5] and in assay [6] was > 100 µM each time. The TGI in assay [7], in assay [8], in assay [9] and in [10] was > 100 µM each time.
As to `Cc1cn(-c2cc(C(=O)Nc3cccc(-n4ccc5c(NC(=O)c6ccccc6)nccc54)c3)cc(C(F)(F)F)c2)cn1`, the GI50 is 1.04 µM in [1]; 0.29 µM in assay [2]; 0.29 µM in assay [3]; 0.291 µM in assay [4]; 0.195 µM in [5]; 0.313 µM in [6]. Moreover, the GI50 in assay [7] is 0.393 µM; in assay [8], 0.579 µM; in assay [9], 0.375 µM; in assay [10], 0.452 µM. Further, the TGI turned out to be 17.1 µM in [1]; 4.71 µM in [2]; 1.04 µM in [3]; 1.35 µM in assay [4]; 0.76 µM in assay [5]; 1.03 µM in assay [6]. Also, the TGI stood at 15.6 µM in assay [7], 25.5 µM in assay [8], 8.21 µM in assay [9] and 3.29 µM in [10].
For the molecule `NCCCN1CCN(CCCNc2ccc3nnn4c5ccccc5c(=O)c2c34)CC1`, the TGI in [1] was 30.7 µM; in assay [2] it was > 100 µM; in assay [3] it was 50.3 µM; in assay [4], 37.7 µM; in [5], 32.1 µM; in [6] it was > 100 µM. Also, the TGI in assay [7] was determined as 35.5 µM; in [8] it was 46.4 µM; in [9] it was 27.1 µM; in assay [10], 38.4 µM.
On to `COC(=O)c1cc2c(cc1CC1Cc3cc4c(cc3C1)CCC4)CCC2`, for which the TGI in assay [1], in assay [2], in [3], in [4], in assay [5] and in assay [6] was > 100 µM throughout. The TGI in [7] was > 100 µM; in assay [8], > 100 µM; in [9] it was 80 µM; in [10], > 100 µM.
As to `CC1NC(=O)[C@H](C)N(C)C(=O)[C@@H]2CCCN2C(=O)[C@@H](NC(=O)C(Cc2ccccc2)NC(=O)/C=C/C=C/C=C/C=C/C=C/C(=O)NC2=C(O)CCC2=O)COC(=O)[C@@H]2CCCN2C1=O` (stereo partly drawn) (X26-[ξF]SP[NMeA][ξA]P; ester 2-C), the TGI in assay [1], in assay [2], in assay [3], in assay [4], in [5] and in assay [6] was > 100 µM each time. The TGI in assay [7], in assay [8], in assay [9] and in assay [10] was > 100 µM throughout.
`COC(=O)CCc1cc(OC)c2c(c1)[C@H](C(=O)OC)[C@@H](c1ccc(O)c(OC)c1)O2`: the TGI in assay [1], in assay [2], in assay [3], in assay [4], in assay [5] and in assay [6] was > 100 µM throughout. In addition, the TGI in assay [7], in assay [8], in assay [9] and in assay [10] was > 100 µM throughout.
As to `Clc1ccc(CSCCc2ccncc2)cc1Cl`, the TGI in assay [1] is 42.2 µM; in assay [2], 56.7 µM; in assay [3], 31.2 µM; in assay [4], 31.5 µM; in assay [5], 29.9 µM; in assay [6], 33.1 µM. Besides, the TGI in [7] turned out to be 45.4 µM; in assay [8] it was 35.6 µM; in assay [9], 33.8 µM; in assay [10], 32.5 µM.
For the molecule `COc1nc2ncc([C@@H](OC(C)=O)[C@@H](COC(C)=O)OC(C)=O)nc2c(=O)[nH]1`, the TGI in assay [1], in assay [2], in assay [3], in assay [4], in [5] and in assay [6] was > 100 µM throughout. Moreover, the TGI in assay [7], in assay [8], in assay [9] and in [10] was > 100 µM throughout. Besides, the GI50 in assay [9] is > 100 µM and 41.7 µM.
As for `ClC(Cl)=C1C(=C(Cl)Cl)C(Cl)(Cl)C1(Cl)Cl`, the GI50 in assay [1] is 0.774 µM; in [9], 0.287 µM. The TGI in [1] is 2.13 µM; in assay [2] it was 3.56 µM; in assay [3] it was 7.85 µM; in [4], 3.73 µM; in assay [5], 9.98 µM; in [6], 14.1 µM. The TGI in assay [7] worked out at 5.08 µM; in assay [8], 29 µM; in [9], 0.304 µM; in assay [10] it was 4.17 µM.
